Laboratory results from ChEMBL document CHEMBL6177934, “Chemical synthetic approaches to mimic the TRAIL: promising cancer therapeutics” (RSC Med Chem, 2024).
Starred links: 1 amine or outer side, 2 acyl side, 3 side chain; linkers in the order of their positions; H or OH if unused. Positions of bridges follow the written chain, without caps; N, C: chain ends. Residues, ends and D or L forms follow the SMILES beside them. Chains are numbered I, II in the order given. *: point of attachment. X1 = NC12CC3(C(=O)NCCCCCC(=O)[*:1])CC(C(=O)NCCCCCC(=O)[*:2])(C1)CC(C(=O)NCCCCCC(=O)[*:3])(C2)C3; X2 = O=C(CCC(=O)[*:1])NCCCC12CC3CC(CCCNC(=O)CCC(=O)[*:2])(C1)CC(CCCNC(=O)CCC(=O)[*:3])(C3)C2; Diglycolyl = O=C(COCC(=O)[*:2])[*:1]; X3 = CC(C)C[C@@H](C)N*

Each molecule was assayed on BJAB (assay: Antiproliferative activity against human BJAB cells assessed as reduction in cell viability incubated for 16 hrs by MTS assay).
Format: functional, cell-based

Molecule	IC50 [nM]
I: Ac-WDCLDNRIGRRQCVKL-NH2 / II: Ac-WDCLDNRIGRRQCVKL-NH2 / III: Ac-WDCLDNRIGRRQCVKL-NH2 (disulfide I:3-I:13, II:3-II:13, III:3-III:13; linker I:15-II:15-III:15 via X1)	31.2

These molecules were tested against Tumor necrosis factor receptor superfamily member 10B (Homo sapiens, UniProt O14763) (assay: Binding affinity to human recombinant DR5 assessed as dissociation constant by SPR analysis).
Chain of Tumor necrosis factor receptor superfamily member 10B (O14763 whole entry): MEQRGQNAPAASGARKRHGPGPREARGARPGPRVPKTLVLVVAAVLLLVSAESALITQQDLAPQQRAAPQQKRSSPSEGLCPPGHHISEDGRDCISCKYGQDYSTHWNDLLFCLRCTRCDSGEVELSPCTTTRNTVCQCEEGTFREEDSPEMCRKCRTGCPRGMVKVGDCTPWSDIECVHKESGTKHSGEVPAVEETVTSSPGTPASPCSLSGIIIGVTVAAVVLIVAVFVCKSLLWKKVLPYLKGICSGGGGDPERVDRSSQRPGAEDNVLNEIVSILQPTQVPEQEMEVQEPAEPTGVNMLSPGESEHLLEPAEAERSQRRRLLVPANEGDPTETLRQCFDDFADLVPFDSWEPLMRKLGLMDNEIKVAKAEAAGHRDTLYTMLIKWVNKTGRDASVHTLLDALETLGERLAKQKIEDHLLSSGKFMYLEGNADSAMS

Molecule	Kd [nM]
CC[C@H](C)[C@@H]1NC(=O)[C@H](CCCNC(=N)N)NC(=O)[C@H](CC(N)=O)NC(=O)[C@H](CC(=O)O)NC(=O)[C@H](CC(C)C)NC(=O)[C@@H](NC(=O)[C@H](CC(=O)O)NC(=O)[C@H](Cc2c[nH]c3ccccc23)NC(C)=O)CSSC[C@@H](C(=O)N[C@H](C(=O)N[C@@H](CCCCN)C(=O)N[C@@H](CC(C)C)C(N)=O)C(C)C)NC(=O)[C@H](CCC(N)=O)NC(=O)[C@H](CCCNC(=N)N)NC(=O)[C@H](CCCCNC(=O)COCC(=O)NCCCC[C@@H]2NC(=O)CNC(=O)[C@H]([C@@H](C)CC)NC(=O)[C@H](CCCNC(=N)N)NC(=O)[C@H](CC(N)=O)NC(=O)[C@H](CC(=O)O)NC(=O)[C@H](CC(C)C)NC(=O)[C@@H](NC(=O)[C@H](CC(=O)O)NC(=O)[C@H](Cc3c[nH]c4ccccc34)NC(C)=O)CSSC[C@@H](C(=O)N[C@H](C(=O)N[C@@H](CCCCN)C(=O)N[C@@H](CC(C)C)C(N)=O)C(C)C)NC(=O)[C@H](CCC(N)=O)NC(=O)[C@H](CCCNC(=N)N)NC2=O)NC(=O)CNC1=O (I: Ac-WDCLDNRIGKRQCVKL-NH2 / II: Ac-WDCLDNRIGKRQCVKL-NH2; disulfide I:3-I:13, II:3-II:13; linker I:10-II:10 via Diglycolyl)	0.114
I: Ac-WDCLDNRIGRRQCVKL-NH2 / II: Ac-WDCLDNRIGRRQCVKL-NH2 / III: Ac-WDCLDNRIGRRQCVKL-NH2 (disulfide I:3-I:13, II:3-II:13, III:3-III:13; linker I:15-II:15-III:15 via X1)	9.1
CC[C@H](C)[C@@H]1NC(=O)[C@H](CCCNC(=N)N)NC(=O)[C@H](CC(N)=O)NC(=O)[C@H](CC(=O)O)NC(=O)[C@H](CC(C)C)NC(=O)[C@@H](NC(=O)[C@H](CC(=O)O)NC(=O)[C@H](Cc2c[nH]c3ccccc23)NC(C)=O)CSSC[C@@H](C(=O)N[C@H](C(=O)N[C@@H](CCCCNC(=O)COCC(=O)NCCCC[C@H](NC(=O)[C@@H](NC(=O)[C@@H]2CSSC[C@H](NC(=O)[C@H](CC(=O)O)NC(=O)[C@H](Cc3c[nH]c4ccccc34)NC(C)=O)C(=O)N[C@@H](CC(C)C)C(=O)N[C@@H](CC(=O)O)C(=O)N[C@@H](CC(N)=O)C(=O)N[C@@H](CCCNC(=N)N)C(=O)N[C@@H]([C@@H](C)CC)C(=O)NCC(=O)N[C@@H](CCCNC(=N)N)C(=O)N[C@@H](CCCNC(=N)N)C(=O)N[C@@H](CCC(N)=O)C(=O)N2)C(C)C)C(=O)N[C@@H](CC(C)C)C(N)=O)C(=O)N[C@@H](CC(C)C)C(N)=O)C(C)C)NC(=O)[C@H](CCC(N)=O)NC(=O)[C@H](CCCNC(=N)N)NC(=O)[C@H](CCCNC(=N)N)NC(=O)CNC1=O (I: Ac-WDCLDNRIGRRQCVKL-NH2 / II: Ac-WDCLDNRIGRRQCVKL-NH2; disulfide I:3-I:13, II:3-II:13; linker I:15-II:15 via Diglycolyl)	1.24
I: Ac-WDCLDNKIGRRQCVKL-NH2 / II: Ac-WDCLDNKIGRRQCVKL-NH2 / III: Ac-WDCLDNKIGRRQCVKL-NH2 (disulfide I:3-I:13, II:3-II:13, III:3-III:13; linker I:7-II:7-III:7 via X2)	0.05
I: Ac-WDCLDNRIGKRQCVKL-NH2 / II: Ac-WDCLDNRIGKRQCVKL-NH2 / III: Ac-WDCLDNRIGKRQCVK-X3 (disulfide I:3-I:13, II:3-II:13, III:3-III:13; linker I:10-II:10-III:10 via X2)	0.539
CC[C@H](C)[C@@H]1NC(=O)[C@H](CCCCNC(=O)COCC(=O)NCCCC[C@@H]2NC(=O)[C@H](CC(N)=O)NC(=O)[C@H](CC(=O)O)NC(=O)[C@H](CC(C)C)NC(=O)[C@@H](NC(=O)[C@H](CC(=O)O)NC(=O)[C@H](Cc3c[nH]c4ccccc34)NC(C)=O)CSSC[C@@H](C(=O)N[C@H](C(=O)N[C@@H](CCCCN)C(=O)N[C@@H](CC(C)C)C(N)=O)C(C)C)NC(=O)[C@H](CCC(N)=O)NC(=O)[C@H](CCCNC(=N)N)NC(=O)[C@H](CCCNC(=N)N)NC(=O)CNC(=O)[C@H]([C@@H](C)CC)NC2=O)NC(=O)[C@H](CC(N)=O)NC(=O)[C@H](CC(=O)O)NC(=O)[C@H](CC(C)C)NC(=O)[C@@H](NC(=O)[C@H](CC(=O)O)NC(=O)[C@H](Cc2c[nH]c3ccccc23)NC(C)=O)CSSC[C@@H](C(=O)N[C@H](C(=O)N[C@@H](CCCCN)C(=O)N[C@@H](CC(C)C)C(N)=O)C(C)C)NC(=O)[C@H](CCC(N)=O)NC(=O)[C@H](CCCNC(=N)N)NC(=O)[C@H](CCCNC(=N)N)NC(=O)CNC1=O (I: Ac-WDCLDNKIGRRQCVKL-NH2 / II: Ac-WDCLDNKIGRRQCVKL-NH2; disulfide I:3-I:13, II:3-II:13; linker I:7-II:7 via Diglycolyl)	2.29
I: Ac-WDCLDNRIGRRQCVKL-NH2 / II: Ac-WDCLDNRIGRRQCVKL-NH2 / III: Ac-WDCLDNRIGRRQCVKL-NH2 (disulfide I:3-I:13, II:3-II:13, III:3-III:13; linker I:15-II:15-III:15 via X2)	0.88
